Reference: the NIST ThermoML archive (doi:10.1016/j.jct.2016.11.017)
Numbers after ± are expanded uncertainties.

Assays:
[1] = Crystal; DTA
[2] = Molar enthalpy of transition or fusion; conditions: Crystal; DSC

Structure (SMILES) | Normal melting temperature [1] [°C] | Molar enthalpy of transition or fusion [2] [kcal/mol]
C[C@@H]1CC[C@@]2(OC1)O[C@H]1C[C@H]3[C@@H]4CC=C5C[C@@H](O)CC[C@]5(C)[C@H]4CC[C@]3(C)[C@H]1[C@@H]2C [Diosgenin] | 201.2 ± 0.4 | 12.5 ± 0.335
C[C@]12CC[C@@H]3c4ccc(O)cc4CC[C@H]3[C@@H]1C[C@@H](O)[C@@H]2O [Estriol] | 280.1 ± 0.4 | 10.2 ± 0.287
